{
  "source": "patent US8598383B2",
  "about": "“Pharmaceutical composition for treating or preventing degenerative and inflammatory diseases” (Neurotech Pharmaceuticals Co., Ltd., priority 2006, dated 2013)",
  "key": {"[1]": {"tested_on": "cerulein-induced pancreatitis", "test": "Cerulein-induced acute pancreatitis model", "assay_type": "in vivo, wistar rat", "protocol": "FIG. 21 is efficacy test results using acute pancreatitis model induced by cerulein. 50 ug/kg of cerulein was administered. Two hours later, edema was induced by administration of LPS. A-C are picture results, and D is graphs showing the weight of pancreas.\nFIG. 22 is efficacy test results using acute pancreatitis model induced by cerulein. 50 ug/kg of cerulein was administered. Two hours later, edema was induced by administration of LPS. 25 mg/kg of compound 18 was administered, and the changes of amylase and lipase, pancreatic digestive enzymes, were quantified.\nCerulein-induced pancreatitis model was used as acute pancreatitis model. Cerulein is an analog of cholecystokinin and a hormone causing secretion of pancreatic digestive enzyme in pancreas. Digestive enzyme was over-secreted into pancreas by intraperitoneal injection of cerulein (50 ug/kg). LPS was injected 2 hours later to induce edema. When cerulein was administered, massive edema was observed on the basis of spleen. […] D of FIG. 21 is results showing the pancreas weight increased by the edema.\nThe model excessively increases digestive enzymes, which are released into blood. That is, the decrease of digestive enzyme in blood can be an indirect evidence for sample to reduce pancreatitis.\nTo confirm the protecting effect on inflammation, the levels of TNF-α and […], inflammatory cytokines, were evaluated. PGE2, the product of COX-2 (inflammation enzyme), were evaluated by ELISA method."}, "DSS-induced colitis": {"tested_on": "DSS-induced colitis", "test": "5% dextran sulfate sodium (DSS) inflammatory intestinal disease model", "assay_type": "in vivo, mouse", "protocol": "FIG. 17 is results showing efficacy through 5% dextran sulfate sodium (DSS) model, inflammatory intestinal disease animal model. After treatment of DSS, 10, 25 or 50 mg/kg of compound 18 suspended in 10% vehicle was orally administered. Sham means colon of normal mouse, DSS means colon mouse treated with 5% DSS. The others are pictures of colon of mice administered with compound 18 at indicated dose.\nFIG. 20 is an efficacy test result of compound 18 using DSS. After treatment of DSS, compound 18 (25 mg/kg) suspended in 10% vehicle was orally administered. After that, bloody excrement by colon injury, diarrhea and the degree of dirtiness were evaluated as feces score.\n5% dextran sulfate sodium (DSS) model was used as inflammatory intestinal disease animal model. 5% DSS mixed with water was orally administered. 5% DSS model causes damage to epithelial cell, and ulcer in left colon and the decrease of colon length are mainly observed in the model. This model is simple and reproductive, and can regulate the degree of inflammation according to dose. Therefore, this model is often used for evaluating drug candidates.\nDSS is continuously administered in water bottle. The 2-hydroxybenzoic acid derivative was suspended in 10% vehicle, and orally administered."}, "BV2 microglia cell line": {"tested_on": "BV2 microglia cell line", "test": "Suppressing effect on production of NO (LPS, Griess reagent)", "assay_type": "cell-based", "details": "Mus musculus, BV-2, LPS-treated BV2 microglia, 24 hours incubation", "protocol": "Inhibiting effect of the 2-hydroxybenzoic acid derivative according to the present invention on NO, inflammatory factor intervening inflammation reaction was evaluated. BV2 microglia cell line was treated with lipopolysaccharide (LPS), a inflammation-inducing material of bacteria toxin, with inclusion of 10 uM, 30 uM or 100 uM of the present compound. After 24 hours of incubation, 50 ul of culture medium was collected in 96-well plate. Then, 50 ul of Griess reagent was added and incubated for 10 minutes at room temperature. The absorbance was evaluated by ELISA reader at 540 nm."}, "gastric mucous membrane": {"tested_on": "gastric mucous membrane", "test": "Safety test about induction of gastric mucous membrane damage", "assay_type": "in vivo", "details": "oral, high dose; indomethacine, ibuprofen, celecoxib as control", "protocol": "Test samples were orally administered at different doses to evaluate the degree of the gastric mucous membrane damage. Aspirin was used as control.\nFIG. 2 is results showing degrees of the gastric mucous membrane damage. Test samples were orally administered at indicated doses. […] Indomethacine, ibuprofen and celecoxib were used as control.\nConventional NSAIDs have side effects causing damages to the gastric mucous membrane. Therefore, it was evaluated whether compound 2 having anti-inflammatory effect causes the gastric damage or not. 30, 100 or 300 mg/kg of aspirin was orally administered as control."}, "[2]": {"test": "Single-dose toxicity test", "assay_type": "in vivo", "details": "mouse, in vivo; single dose", "protocol": "FIG. 32 is results of single dose toxicity testing of some 2-hydroxybenzoic acid derivatives according to the present invention.\nSingle-dose toxicities of the 2-hydroxybenzoic acid derivatives were evaluated."}, "[3]": {"tested_on": "collagen-induced arthritis", "test": "Collagen-induced arthritis model (arthritic index)", "assay_type": "in vivo, mouse", "details": "25 mg/kg/day intraperitoneal", "protocol": "FIG. 15 is results showing efficacy through arthritis animal model induced by collagen. 25 mg/kg of compound 2, 3 or 18, or methotrexate (control, MTX, 1 mg/kg/week) was intraperitoneally injected after administration of collagen.\nFIG. 16 is results showing efficacy of compounds 6 and 11 through arthritis animal model induced by collagen. Collagen was intradermally injected two times with 2 week-interval. One week later, compound 6, compound 11 and methotrexate (control) were intraperitoneally injected. Then, the animals were observed everyday for 2-3 weeks, and results was evaluated by arthritis index.\nTo evaluate the efficacy of the 2-hydroxybenzoic acid derivative, collagen-induced arthritis model (rheumarthritis animal model) was used. Bovine type II collagen was mixed with complete Freund's adjuvant to make an emulsion, and the emulsion was intradermally injected into the origin site of 8˜10 week-old DBA/1LacJ mouse tail. Intradermal boosting was performed by the same method 2 weeks later. 25 mg/kg/day of compounds 2, 3 and 18, 1 mg/kg/week of methotrexate (comparative example) or 10% vehicle (control) were intraperitoneally injected one week after the second intradermal injection of collagen (FIG. 15). Pictures of foot edema of normal rat (sham), collagen-administered rat (collagen) and compound 18-administered rat (compound 18, 25 mg/kg/day injection) were shown in FIG. 14.\nIn addition, 50 mg/kg/day of compounds 6 and 11, and 5 mg/kg/2 days of methotrexate (comparative example) were intraperitoneally injected. Phosphate buffered saline was injected as control (FIG. 16). For 2˜3 weeks, the degree of arthritis was observed everyday, and the result was evaluated according to the below arthritic index using edema.\n4 paws were evaluated as from 0 to 4 point, Total points: 16"}, "atherosclerosis": {"tested_on": "atherosclerosis", "details": "early formation of atherosclerotic lesion; cited from earlier work"}, "diabetic symptoms": {"tested_on": "diabetic symptoms", "details": "mouse administered streptozotocin; cited from earlier work"}},
  "data": [
    {"compound": "CC(=O)Oc1ccc(NCCc2ccc(C(F)(F)F)cc2)cc1C(=O)O", "note": "[compound 18, 2-acetoxy-5-[2-(4-trifluoromethyl-phenyl)-ethylamino]-benzoic acid]", "values": [
      {"measurement": "amylase and lipase in plasma", "setting": "[1]; 25 mg/kg", "result": "significantly reduced the increase"},
      {"measurement": "pancreas weight", "setting": "[1]; 25 mg/kg", "result": "significantly reduced pancreas weight"},
      {"measurement": "pancreatic edema", "setting": "[1]; 25 mg/kg", "result": "the edema was decreased"},
      {"measurement": "TNF-α, IL-1β and PGE2 (inflammation markers)", "setting": "[1]; ELISA", "result": "significantly reduced these inflammation markers"},
      {"measurement": "length and width of colon", "setting": "DSS-induced colitis; oral, 10, 25 or 50 mg/kg in 10% vehicle", "result": "significantly changed the length and width of the colon"},
      {"measurement": "feces score (bloody excrement, diarrhea, dirtiness)", "setting": "DSS-induced colitis; vs DSS only, compound 18 25 mg/kg oral", "result": "significantly decreased feces score"},
      {"measurement": "IC50", "setting": "BV2 microglia cell line", "result": 21.6, "unit": "µM"},
      {"measurement": "gastric mucous membrane damage", "setting": "gastric mucous membrane", "result": "did not cause damage to gastric mucous membrane"},
      {"measurement": "LD50", "setting": "[2]", "result": "> 3000", "unit": "mg/kg"},
      {"measurement": "arthritic index", "setting": "[3]", "result": "apparent reducing effect"}
    ]},
    {"compound": "COc1ccc2c(c1)c(CC(=O)O)c(C)n2C(=O)c1ccc(Cl)cc1", "note": "[indomethacine]", "values": [
      {"measurement": "reduction of atherosclerosis", "setting": "atherosclerosis", "result": "38-51%"}
    ]},
    {"compound": "C[C@@H](O)CCCCn1c(=O)c2c(ncn2C)n(C)c1=O", "note": "[Lisofylline]", "values": [
      {"measurement": "reduction of diabetic symptoms", "setting": "diabetic symptoms", "result": 50, "unit": "%"}
    ]}
  ]
}
